# Reference: patent publication US11166959B2, “Isofuranone compounds useful as HPK1 inhibitors” (BRISTOL-MYERS SQUIBB COMPANY, priority 2017, dated 2021)
# Legend:
# IRAK4 = biological target: T1, IRAK4 (Homo sapiens, UniProt Q9NWZ3); test: IRAK4 Inhibition Assay (kinase reaction, Caliper capillary electrophoresis); format: biochemical; conditions: 500 μM ATP, 11 concentrations
# T1 construct: 1 nM IRAK4 (160-460); purchased SignalChem M24016
# T1 sequence (Q9NWZ3 160-460): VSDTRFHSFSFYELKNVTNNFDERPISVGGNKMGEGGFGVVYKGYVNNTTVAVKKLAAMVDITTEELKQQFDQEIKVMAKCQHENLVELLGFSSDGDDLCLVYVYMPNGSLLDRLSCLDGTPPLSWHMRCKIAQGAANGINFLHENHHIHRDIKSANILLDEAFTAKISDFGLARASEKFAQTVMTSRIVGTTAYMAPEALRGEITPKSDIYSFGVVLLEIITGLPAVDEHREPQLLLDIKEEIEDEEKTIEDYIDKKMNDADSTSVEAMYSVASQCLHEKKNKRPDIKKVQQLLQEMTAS
# Protocol: (§1) The reactions were incubated out for three hours and quenched with 1 mM EDTA solution. The reaction incubation time and enzyme concentration were optimized to obtain a maximum peptide substrate conversion of 20-30%. The reaction mixtures were analyzed by capillary electrophoresis on a Caliper LabChip EZ Reader to resolve phosphorylated and unphosphorylated peptide species and determine peptide substrate conversion. […] The compounds were dissolved in DMSO and evaluated at 11 concentrations to determine IC50 values.
# HPK1 = biological target: T2, HPK1 (Homo sapiens, UniProt Q92918); test: HPK1 Inhibition Assay (kinase reaction, Caliper capillary electrophoresis); format: biochemical; conditions: for IC50: 0.625 nM HPK1, 22 μM ATP, 11 concentrations, read-out: HPK1 IC50; for IRAK4/HPK1 Ratio: ratio of the IRAK4 IC50 value to the HPK1 IC50 value
# T2 construct: purchased SignalChem M23-11G
# T2 sequence (Q92918 1-346 limits assumed): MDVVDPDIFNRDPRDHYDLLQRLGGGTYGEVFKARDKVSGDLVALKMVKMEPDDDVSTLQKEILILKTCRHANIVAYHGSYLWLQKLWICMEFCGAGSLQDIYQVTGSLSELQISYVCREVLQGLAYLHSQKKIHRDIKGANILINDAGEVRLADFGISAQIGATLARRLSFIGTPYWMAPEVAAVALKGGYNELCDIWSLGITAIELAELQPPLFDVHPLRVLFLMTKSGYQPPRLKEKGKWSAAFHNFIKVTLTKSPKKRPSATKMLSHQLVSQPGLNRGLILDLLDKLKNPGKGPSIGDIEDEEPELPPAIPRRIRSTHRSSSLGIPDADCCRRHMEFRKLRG
# Protocol: as §1, with “to determine the IC50 values.” for “to determine IC50 values.”
SMILES,IC50 (IRAK4) [nM],IC50 (HPK1) [nM],IRAK4/HPK1 Ratio (HPK1)
"CN(C)C12CC(c3noc(-c4cnc(Nc5ccc6c(c5)C(C)(C)OC6=O)nc4N[C@H](CO)c4ccccc4)n3)(C1)C2 [Example 48, 5-[(5-{3-[3-(dimethylamino)bicyclo[1.1.1]pentan-1-yl]-1,2,4-oxadiazol-5-yl}-4-{[(1S)-2-hydroxy-1-phenylethyl]amino}pyrimidin-2-yl)amino]-3,3-dimethyl-1,3-dihydro-2-benzofuran-1-one]",250 to 1000,< 50,C (C=>50)
"CC(=O)NC12CC(c3noc(-c4cnc(Nc5ccc6c(c5)C(C)(C)OC6=O)nc4N[C@H](CO)c4ccccc4)n3)(C1)C2 [Example 49, N-[3-(5-{2-[(3,3-dimethyl-1-oxo-1,3-dihydro-2-benzofuran-5-yl)amino]-4-{[(1S)-2-hydroxy-1-phenylethyl]amino}pyrimidin-5-yl}-1,2,4-oxadiazol-3-yl)bicyclo[1.1.1]penta-1-yl]acetamide]",250 to 1000,< 50,C (C=>50)
"COC(=O)NC12CC(c3noc(-c4cnc(Nc5ccc6c(c5)C(C)(C)OC6=O)nc4N[C@H](CO)c4ccccc4)n3)(C1)C2 [Example 50, Methyl N-[3-(5-{2-[(3,3-dimethyl-1-oxo-1,3-dihydro-2-benzofuran-5-yl)amino]-4-{[(1S)-2-hydroxy-1-phenylethyl]amino}pyrimidin-5-yl}-1,2,4-oxadiazol-3-yl)bicyclo[1.1.1]pentan-1-yl]carbamate]",250 to 1000,< 50,C (C=>50)
"CC1(C)OC(=O)c2ccc(Nc3ncc(-c4n[nH]c(=O)o4)c(N[C@H](CO)c4ccccc4)n3)cc21 [Example 52, 5-{2-[(3,3-dimethyl-1-oxo-1,3-dihydro-2-benzofuran-5-yl)amino]-4-{[(1S)-2-hydroxy-1-phenylethyl]amino}pyrimidin-5-yl}-2,3-dihydro-1,3,4-oxadiazol-2-one]",250 to 1000,< 50,C (C=>50)
"CCn1nc(-c2cnc(Nc3ccc4c(c3)C(C)(C)OC4=O)nc2N[C@H](CO)c2ccccc2)oc1=O [Example 53, 5-{2-[(3,3-dimethyl-1-oxo-1,3-dihydro-2-benzofuran-5-yl)amino]-4-{[(1S)-2-hydroxy-1-phenylethyl]amino}pyrimidin-5-yl}-3-ethyl-2,3-dihydro-1,3,4-oxadiazol-2-one]",250 to 1000,< 50,C (C=>50)
"CC1(C)OC(=O)c2ccc(Nc3ncc(-c4nnc(-c5cccnc5)o4)c(N[C@H](CO)c4ccccc4)n3)cc21 [Example 57, 5-[(4-{[(1S)-2-hydroxy-1-phenylethyl]amino}-5-[5-(pyridin-3-yl)-1,3,4-oxadiazol-2-yl]pyrimidin-2-yl)amino]-3,3-dimethyl-1,3-dihydro-2-benzofuran-1-one]",250 to 1000,< 50,C (C=>50)
"CC(C)(O)c1nnc(-c2cnc(Nc3ccc4c(c3)C(C)(C)OC4=O)nc2N[C@H](CO)c2ccccc2)o1 [Example 61, 5-[(4-{[(1S)-2-hydroxy-1-phenylethyl]amino}-5-[5-(2-hydroxypropan-2-yl)-1,3,4-oxadiazol-2-yl]pyrimidin-2-yl)amino]-3,3-dimethyl-1,3-dihydro-2-benzofuran-1-one]",50 to 250,< 50,C (C=>50)
"CC1(C)OC(=O)c2ccc(Nc3ncc(-c4nnc(-c5ccccn5)o4)c(N[C@H](CO)c4ccccc4)n3)cc21 [Example 66, 5-[(4-{[(1S)-2-hydroxy-1-phenylethyl]amino}-5-[5-(pyridin-2-yl)-1,3,4-oxadiazol-2-yl]pyrimidin-2-yl)amino]-3,3-dimethyl-1,3-dihydro-2-benzofuran-1-one]",250 to 1000,50 to 250,B (B=10 to 50)
"CC1(C)OC(=O)c2ccc(Nc3ncc(-c4nnc(-c5cccnn5)o4)c(N[C@H](CO)c4ccccc4)n3)cc21 [Example 67, 5-[(4-{[(1S)-2-hydroxy-1-phenylethyl]amino}-5-[5-(pyridazin-3-yl)-1,3,4-oxadiazol-2-yl]pyrimidin-2-yl)amino]-3,3-dimethyl-1,3-dihydro-2-benzofuran-1-one]",50 to 250,< 50,B (B=10 to 50)
"CC1(C)OC(=O)c2ccc(Nc3ncc(-c4nnc(C5(C(F)(F)F)CC5)o4)c(N[C@H](CO)c4ccccc4)n3)cc21 [Example 68, 5-[(4-{[(1S)-2-hydroxy-1-phenylethyl]amino}-5-{5-[1-(trifluoromethyl)cyclopropyl]-1,3,4-oxadiazol-2-yl}pyrimidin-2-yl)amino]-3,3-dimethyl-1,3-dihydro-2-benzofuran-1-one]",250 to 1000,< 50,B (B=10 to 50)

# Further lines, results first:
IC50 (IRAK4) [nM],IC50 (HPK1) [nM],IRAK4/HPK1 Ratio (HPK1),SMILES
250 to 1000,< 50,C (C=>50),"CC1(C)OC(=O)c2ccc(Nc3ncc(C(=O)NN)c(N[C@H](CO)c4ccccc4)n3)cc21 [Example 51, 2-[(3,3-dimethyl-1-oxo-1,3-dihydro-2-benzofuran-5-yl)amino]-4-{[(1S)-2-hydroxy-1-phenylethyl]amino}pyrimidine-5-carbohydrazide]"
250 to 1000,< 50,B (B=10 to 50),"CC1(C)OC(=O)c2ccc(Nc3ncc(C(=O)NNC(=O)c4cccnc4)c(N[C@H](CO)c4ccccc4)n3)cc21 [Example 56, N′-{2-[(3,3-dimethyl-1-oxo-1,3-dihydro-2-benzofuran-5-yl)amino]-4-{[(1S)-2-hydroxy-1-phenylethyl]amino}pyrimidine-5-carbonyl}pyridine-3-carbohydrazide]"
250 to 1000,< 50,B (B=10 to 50),"CC1(C)OC(=O)c2ccc(Nc3ncc(C(=O)NNC(=O)c4cnccn4)c(N[C@H](CO)c4ccccc4)n3)cc21 [Example 58, N′-{2-[(3,3-dimethyl-1-oxo-1,3-dihydro-2-benzofuran-5-yl)amino]-4-{[(1S)-2-hydroxy-1-phenylethyl]amino}pyrimidine-5-carbonyl} pyrazine-2-carbohydrazide]"
250 to 1000,< 50,B (B=10 to 50),"CC/N=C(\NCCCN(C)C)NNC(=O)c1cnc(Nc2ccc3c(c2)C(C)(C)OC3=O)nc1N[C@H](CO)c1ccccc1 [Example 59, 1-({2-[(3,3-dimethyl-1-oxo-1,3-dihydro-2-benzofuran-5-yl)amino]-4-{[(1S)-2-hydroxy-1-phenylethyl]amino}pyrimidin-5-yl}formohydrazido)-N-[3-(dimethylamino)propyl]-N′-ethylmethanimidamide]"
250 to 1000,50 to 250,B (B=10 to 50),"CC(C)(O)C(=O)NNC(=O)c1cnc(Nc2ccc3c(c2)C(C)(C)OC3=O)nc1N[C@H](CO)c1ccccc1 [Example 60, 2-[(3,3-dimethyl-1-oxo-1,3-dihydro-2-benzofuran-5-yl)amino]-4-{[(1S)-2-hydroxy-1-phenylethyl]amino}-N′-(2-hydroxy-2-methylpropanoyl)pyrimidine-5-carbohydrazide]"
250 to 1000,< 50,C (C=>50),"CC1(C)OC(=O)c2ccc(Nc3ncc(C(=O)NNC(=O)C4CC4)c(N[C@H](CO)c4ccccc4)n3)cc21 [Example 62, (S)—N′-(cyclopropanecarbonyl)-2-((3,3-dimethyl-1-oxo-1,3-dihydroisobenzofuran-5-yl)amino)-4-((2-hydroxy-1-phenylethyl)amino)pyrimidine-5-carbohydrazide]"
250 to 1000,50 to 250,B (B=10 to 50),"CC1(C)OC(=O)c2ccc(Nc3ncc(C(=O)NNC(=O)C(C)(O)C(F)(F)F)c(N[C@H](CO)c4ccccc4)n3)cc21 (stereo partly drawn) [Example 64, 2-[(3,3-dimethyl-1-oxo-1,3-dihydro-2-benzofuran-5-yl)amino]-4-{[(1S)-2-hydroxy-1-phenylethyl]amino}-N′-(3,3,3-trifluoro-2-hydroxy-2-methylpropanoyl)pyrimidine-5-carbohydrazide]"
250 to 1000,< 50,B (B=10 to 50),"CC1(C)OC(=O)c2ccc(Nc3ncc(-c4nnc(C(C)(O)C(F)(F)F)o4)c(N[C@H](CO)c4ccccc4)n3)cc21 (stereo partly drawn) [Example 65, 5-[(4-{[(1S)-2-hydroxy-1-phenylethyl]amino}-5-[5-(1,1,1-trifluoro-2-hydroxypropan-2-yl)-1,3,4-oxadiazol-2-yl]pyrimidin-2-yl)amino]-3,3-dimethyl-1,3-dihydro-2-benzofuran-1-one]"
